Earlier results in patent US20080069871A1, “H[…] DETERRENT DELIVERY SYSTEM” (priority 2006, published 2008).

Conditions: stated as reason for use as model drug

Compound: Cc1ncc([N+](=O)[O-])n1CCO [metronidazole, Metronidazole]
- solubility in water and aqueous ethanol solutions: highly soluble
